The test system of data set [1] is patients with chronic intestinal pseudo-obstruction. Conditions: prucalopride 2 mg, 12-week periods, cited from earlier work.
Data set [2] deals with subjects with idiopathic Chronic Intestinal Pseudo-Obstruction (CIPO).
Protocol: Safety was assessed at each visit measuring and evaluating changes from the baseline of the following parameters: • Vital signs (including blood pressure, pulse, temperature). • Physical examination also including height and weight. • Routine laboratory parameters (hematocrit, hemoglobin, red blood cell count, white blood cell count with differential count and platelet count for hematology; glycaemia, total cholesterol, triglycerides, serum creatinine, urea or blood urea nitrogen [BUN], sodium, potassium, chloride, AST, ALT, Gamma-GT, alkaline phosphatase, total and fractioned bilirubin (direct and indirect), erythrocyte sedimentation rate, PT (or INR), aPTT for biochemistry; specific gravity, pH, protein, glucose, ketones, hemoglobin, nitrite, bilirubin, urobilinogen and microscopic examination for urinalysis). • Triplicate ECG • Adverse events (AEs). • Withdrawal from study due to AEs.
Adverse events starting on or after the first intake of investigational product were considered treatment-emergent AEs (TEAEs). Verbatim terms for AEs were coded using the most current version of Medical Dictionary for Regulatory Activities (MedDRA) coding. […]
Data set [3] relates to Prp-SCA7-92Q mice. Put plainly: Body weight and tolerability in Prp-SCA7-92Q mice. In kind it is in vivo. The conditions noted are these: 1 and 3 mg/kg, 5 weeks of treatment. The text has this: A normal control (NC) group of untreated wild-type mice was also examined. No significant differences were noticed between groups (FIG. 13).
In data set [4] the test system is subjects with idiopathic Chronic Intestinal Pseudo-Obstruction (CIPO). The conditions noted are these: in vivo. The text has this: Visits where assessed at the beginning of the screening period (Visit 1), at the beginning and at the end of each period of treatment (Visit 2 to Visit 9) and at the end of the follow-up period (Visit 10).
PLA=matching placebo once daily for 4 weeks.
Gastrointestinal symptom severity (abdominal pain, bloating, nausea and vomiting) and bowel habit (weekly recall) were registered on Day −1 and weekly after randomization, during both treatment and washout periods, as appropriate according to the Schedule of Assessments using an e-diary until end of follow up period.
Subjects were instructed to take three capsules of medication orally, once daily at approximately the same time each morning, on an empty stomach, with water.
The Primary efficacy endpoints was to evaluate the change in weekly global gastrointestinal symptoms average index score (WGGSAIS) from start to the end of each treatment period.
The WGGSAIS was obtained by averaging the scores for each of the 4 symptoms assessed weekly: abdominal pain, bloating, nausea and vomiting, with lower scores representing better health. If at least 2 symptoms were assessed, the average score was calculated, otherwise, it was considered missing.
Change between the end of treatment and pre-treatment WGGSAIS value≤−1 point was computed and considered a “success” while changes >−1 were considered a “failure”. The proportion of subjects with a 1-point improvement in WGGSAIS is summarized by treatment sequence, period and timepoint (weekly evaluation by e Diary.
Considering the evaluable pairs, the proportions of pairs of observations with 1-point improvement in WGGSAIS is summarized by treatment and timepoint. […]
Considering the evaluable pairs, the number of pseudo-obstruction episodes occurring within each treatment period and number of pseudo-obstruction episodes occurring within wash-out/follow up was considered as categorical variables classified as 0, 1, 2 and >2 and are summarized by treatment.
The same descriptive analyses described above are repeated focusing on change from the end of each treatment period to the end of each week of washout period or follow-up period instead of the change between post-treatment and pre-treatment.

In data set [5] the test system is Prp-SCA7-92Q transgenic mice. Put plainly: Morphometric gut evaluation (HE histological score) in Prp-SCA7-92Q transgenic mice. In kind it is in vivo. Conditions: Prp-SCA7-92Q mice.
Protocol: After mice were sacrificed by CO2 inhalation, the small intestine and colon tissue were cut, fixed for 48 hours with 10% neutral buffered formalin. The paraffin sample was prepared by dehydration with a series of gradient alcohol solutions according to standard methods known in the field. Tissues were cut into 4 μm sections by rotary microtome and baked for 2 hours at 60° C. After (HE) hematoxylin-eosin (HE) images were obtained from each animal at 20× magnification for histological analyses by fully automatic digital pathology slide-system (KF BIO, KF-PRO-005, China) using K-viewer Imaging software (KF BiO, V1, China).
The presence of inflammation and ulcers was quantified using indicators (i.e. ulcers=% area with intestinal mucosal damage, inflammation=necrosis, bleeding) to which a score from 0 to 3 was associated. Inflammation and ulcers scoring were awarded after section evaluation and analysis.

Where “and” joins values, the source holds several entries; their conditions need not be identical. Identical values can stand only once. Marks after values point to notes of the source that are not given here.

In the case of `COCCCN1CCC(NC(=O)c2cc(Cl)c(N)c3c2OCC3)CC1` [prucalopride], in data set [1], the “stool frequency and consistency” value was “did not affect”. Further, in data set [1] (four completers), the “patients with significantly improved bloating” value is given as “four”, the “patients with significantly improved nausea” value was “two”, the “patients with significantly improved pain” value is on record as “three of four patients” and the “patients with significantly improved vomiting” value was “one”.
For `CC(C)n1c(=O)c(C(=O)N[C@H]2C[C@H]3CC[C@@H](C2)N3C[C@@H](O)CN(C)S(C)(=O)=O)cc2ccccc21` [velusetrag, 1-isopropyl-2-oxo-1,2-dihydroquinoline-3-carboxylic acid {(1S,3R,5R)-8-[(R)-2-hydroxy-3-(methanesulfonyl-methyl-amino)propyl]-8-azabicyclo[3.2.1]oct-3-yl}amide], in data set [2] (Safety Set (placebo emergent 38)), the “total TEAEs classified as velusetrag emergent” value is 29. Besides, the “subjects with TEAEs classified as velusetrag emergent, %” value in data set [2] (Safety Set, 17 subjects (placebo emergent 58.82%)) was found to be 41.18%. Also, the “tolerability: body weight and lethality throughout treatment” value in data set [3] is “no reduction in body weight and lethality was observed”. Moreover, in data set [4], the “WGGSAIS total score, mean change from end of treatment at the end of wash-out” value turned out to be 0.54±0.736; the “WGGSAIS, mean” value is 1.707 and 1.608 and 1.367 and 1.458; the “WGGSAIS, mean change from pre-treatment to end of treatment” value is −0.529±0.7956; the “WGGSAIS, mean difference between treatments (velusetrag minus placebo)” value is −0.342+0.9343. Also, in data set [5] (1 mg/kg po once daily 5 weeks), the “Inflammation (count of necrosis) score, DSI” value was determined as 1.6 ± 0.1; the “Inflammation (count of necrosis) score, Proximal Colon” value amounted to 1.5 ± 0.1; the “Total score, DSI” value was found to be 2.4 ± 0.1; the “Total score, Proximal Colon” value amounted to 2.4 ± 0.1. Also, in data set [5] (1 mg/kg po once daily 5 weeks), the “Ulcers (mucosal damage) score, DSI” value is 0.8 ± 0.1^∘ and the “Ulcers (mucosal damage) score, Proximal Colon” value is reported as 0.9 ± 0.05. Further, in data set [5] (3 mg/kg po once daily 5 weeks), the “Inflammation (count of necrosis) score, DSI” value is on record as 1.2 ± 0.1*^∘∘∘; the “Inflammation (count of necrosis) score, Proximal Colon” value is 1.1 ± 0.1*^∘∘∘; the “Total score, DSI” value is recorded as 1.8 ± 0.1**^∘; the “Total score, Proximal Colon” value is on record as 1.5 ± 0.1*^∘∘∘. Moreover, in data set [5] (3 mg/kg po once daily 5 weeks), the “Ulcers (mucosal damage) score, DSI” value is recorded as 0.6 ± 0.1^∘ and the “Ulcers (mucosal damage) score, Proximal Colon” value is 0.4 ± 0.01^∘∘.

Values taken from US20260124194A1 (priority 2022, published 2026).
